This is an account of results in the NIST ThermoML archive (doi:10.1016/j.fluid.2016.05.030).

Structures are written as SMILES. Numbers after ± are expanded uncertainties.

The conditions of one series: 328.15 K; 101.33 kPa; Liquid; Concentric cylinders viscometry.
What is called viscosity is the resistance of a fluid to flow. For the compound `CCCCc1cccc[n+]1CC.O=S(=O)([N-]S(=O)(=O)C(F)(F)F)C(F)(F)F`, the viscosity was 29.7 ± 0.18 mPa·s.
As for `CCCCCCCc1cccc[n+]1CC.O=S(=O)([N-]S(=O)(=O)C(F)(F)F)C(F)(F)F`, the viscosity worked out at 34.73 ± 0.21 mPa·s.
For the compound `CCCCCCCCc1cccc[n+]1CC.O=S(=O)([N-]S(=O)(=O)C(F)(F)F)C(F)(F)F`, the viscosity stood at 39.54 ± 0.24 mPa·s.
As to `CCCCCc1cccc[n+]1CC.O=S(=O)([N-]S(=O)(=O)C(F)(F)F)C(F)(F)F`, the viscosity was 29.65 ± 0.18 mPa·s.
As for `CCCCCCc1cccc[n+]1CC.O=S(=O)([N-]S(=O)(=O)C(F)(F)F)C(F)(F)F`, the viscosity is listed as 31.83 ± 0.2 mPa·s.

The same series, now with this note: 328.15 K; 101.33 kPa; Liquid; Vibrating tube method.
Usually mass density stands for the mass of a sample divided by its volume. Take `CCc1cccc[n+]1CC.O=S(=O)([N-]S(=O)(=O)C(F)(F)F)C(F)(F)F` [1,2-diethylpyridin-1-ium bis((trifluoromethyl)sulfonyl)imide]: the mass density is 1442.2 ± 1.2 kg/m3.
With `CCCc1cccc[n+]1CC.O=S(=O)([N-]S(=O)(=O)C(F)(F)F)C(F)(F)F`, the mass density worked out at 1419.2 ± 1.1 kg/m3.
Take `CCCCc1cccc[n+]1CC.O=S(=O)([N-]S(=O)(=O)C(F)(F)F)C(F)(F)F`: the mass density stood at 1381.9 ± 1.1 kg/m3.
For `CCCCCCCc1cccc[n+]1CC.O=S(=O)([N-]S(=O)(=O)C(F)(F)F)C(F)(F)F`, the mass density was 1295.2 ± 1.1 kg/m3.
As for `CCCCCCCCc1cccc[n+]1CC.O=S(=O)([N-]S(=O)(=O)C(F)(F)F)C(F)(F)F`, the mass density is given as 1272.3 ± 1.1 kg/m3.
For `CCCCCc1cccc[n+]1CC.O=S(=O)([N-]S(=O)(=O)C(F)(F)F)C(F)(F)F`, the mass density came to 1344.6 ± 1.1 kg/m3.
For `CCCCCCc1cccc[n+]1CC.O=S(=O)([N-]S(=O)(=O)C(F)(F)F)C(F)(F)F`, the mass density is on record as 1318.2 ± 1.1 kg/m3.

Staying with this series, now noted: 333.15 K; 101.33 kPa; Liquid; Concentric cylinders viscometry.
For `CCc1cccc[n+]1CC.O=S(=O)([N-]S(=O)(=O)C(F)(F)F)C(F)(F)F` [1,2-diethylpyridin-1-ium bis((trifluoromethyl)sulfonyl)imide], the viscosity stood at 19.4 ± 0.12 mPa·s.
As for `CCCc1cccc[n+]1CC.O=S(=O)([N-]S(=O)(=O)C(F)(F)F)C(F)(F)F`, the viscosity is 24.59 ± 0.15 mPa·s.
`CCCCc1cccc[n+]1CC.O=S(=O)([N-]S(=O)(=O)C(F)(F)F)C(F)(F)F`: the viscosity came to 25.14 ± 0.15 mPa·s.
On to `CCCCCCCc1cccc[n+]1CC.O=S(=O)([N-]S(=O)(=O)C(F)(F)F)C(F)(F)F`, for which the viscosity is 29.21 ± 0.18 mPa·s.
Same read-out and setting: to `CCCCCCCCc1cccc[n+]1CC.O=S(=O)([N-]S(=O)(=O)C(F)(F)F)C(F)(F)F` belongs 33.06 ± 0.2 mPa·s; to `CCCCCc1cccc[n+]1CC.O=S(=O)([N-]S(=O)(=O)C(F)(F)F)C(F)(F)F`, 25.11 ± 0.15 mPa·s; to `CCCCCCc1cccc[n+]1CC.O=S(=O)([N-]S(=O)(=O)C(F)(F)F)C(F)(F)F`, 26.87 ± 0.16 mPa·s.

Staying with this series, now noted: 333.15 K; 101.33 kPa; Liquid; Vibrating tube method.
Regarding `CCc1cccc[n+]1CC.O=S(=O)([N-]S(=O)(=O)C(F)(F)F)C(F)(F)F` [1,2-diethylpyridin-1-ium bis((trifluoromethyl)sulfonyl)imide], the mass density was found to be 1437.5 ± 1.1 kg/m3.
In the case of `CCCc1cccc[n+]1CC.O=S(=O)([N-]S(=O)(=O)C(F)(F)F)C(F)(F)F`, the mass density stood at 1414.6 ± 1.1 kg/m3.
As to `CCCCc1cccc[n+]1CC.O=S(=O)([N-]S(=O)(=O)C(F)(F)F)C(F)(F)F`, the mass density is recorded as 1377.4 ± 1.1 kg/m3.
For `CCCCCCCc1cccc[n+]1CC.O=S(=O)([N-]S(=O)(=O)C(F)(F)F)C(F)(F)F`, the mass density was 1290.9 ± 1.1 kg/m3.
As to `CCCCCCCCc1cccc[n+]1CC.O=S(=O)([N-]S(=O)(=O)C(F)(F)F)C(F)(F)F`, the mass density came to 1268.1 ± 1.1 kg/m3.
Still for that read-out and setting: to `CCCCCc1cccc[n+]1CC.O=S(=O)([N-]S(=O)(=O)C(F)(F)F)C(F)(F)F` belongs 1340.2 ± 1.1 kg/m3; to `CCCCCCc1cccc[n+]1CC.O=S(=O)([N-]S(=O)(=O)C(F)(F)F)C(F)(F)F`, 1313.9 ± 1.1 kg/m3.

The series is the same for the next values; noted with them: 338.15 K; 101.33 kPa; Liquid; Concentric cylinders viscometry.
As to `CCc1cccc[n+]1CC.O=S(=O)([N-]S(=O)(=O)C(F)(F)F)C(F)(F)F` [1,2-diethylpyridin-1-ium bis((trifluoromethyl)sulfonyl)imide], the viscosity came to 16.9 ± 0.1 mPa·s.
In the case of `CCCc1cccc[n+]1CC.O=S(=O)([N-]S(=O)(=O)C(F)(F)F)C(F)(F)F`, the viscosity was 21 ± 0.13 mPa·s.
`CCCCc1cccc[n+]1CC.O=S(=O)([N-]S(=O)(=O)C(F)(F)F)C(F)(F)F`: the viscosity stood at 21.42 ± 0.13 mPa·s.
Same read-out and setting: the value for `CCCCCCCc1cccc[n+]1CC.O=S(=O)([N-]S(=O)(=O)C(F)(F)F)C(F)(F)F` was 24.71 ± 0.15 mPa·s; that for `CCCCCCCCc1cccc[n+]1CC.O=S(=O)([N-]S(=O)(=O)C(F)(F)F)C(F)(F)F` was 27.82 ± 0.17 mPa·s; that for `CCCCCc1cccc[n+]1CC.O=S(=O)([N-]S(=O)(=O)C(F)(F)F)C(F)(F)F` was 21.4 ± 0.13 mPa·s.
Turning to `CCCCCCc1cccc[n+]1CC.O=S(=O)([N-]S(=O)(=O)C(F)(F)F)C(F)(F)F`, the viscosity was 22.8 ± 0.14 mPa·s.

The series is the same for the next values; noted with them: 338.15 K; 101.33 kPa; Liquid; Vibrating tube method.
For the compound `CCc1cccc[n+]1CC.O=S(=O)([N-]S(=O)(=O)C(F)(F)F)C(F)(F)F` [1,2-diethylpyridin-1-ium bis((trifluoromethyl)sulfonyl)imide], the mass density is 1432.9 ± 1.1 kg/m3.
Take `CCCc1cccc[n+]1CC.O=S(=O)([N-]S(=O)(=O)C(F)(F)F)C(F)(F)F`: the mass density is listed as 1410 ± 1.1 kg/m3.
Consider `CCCCc1cccc[n+]1CC.O=S(=O)([N-]S(=O)(=O)C(F)(F)F)C(F)(F)F`, for which the mass density came out at 1373 ± 1.1 kg/m3.
For `CCCCCCCc1cccc[n+]1CC.O=S(=O)([N-]S(=O)(=O)C(F)(F)F)C(F)(F)F`, the mass density amounted to 1286.7 ± 1.1 kg/m3.
Regarding `CCCCCCCCc1cccc[n+]1CC.O=S(=O)([N-]S(=O)(=O)C(F)(F)F)C(F)(F)F`, the mass density worked out at 1264 ± 1.1 kg/m3.
For the compound `CCCCCc1cccc[n+]1CC.O=S(=O)([N-]S(=O)(=O)C(F)(F)F)C(F)(F)F`, the mass density worked out at 1335.8 ± 1.1 kg/m3.
With `CCCCCCc1cccc[n+]1CC.O=S(=O)([N-]S(=O)(=O)C(F)(F)F)C(F)(F)F`, the mass density was found to be 1309.7 ± 1.1 kg/m3.

The series is the same for the next values; noted with them: 343.15 K; 101.33 kPa; Liquid; Concentric cylinders viscometry.
Take `CCc1cccc[n+]1CC.O=S(=O)([N-]S(=O)(=O)C(F)(F)F)C(F)(F)F` [1,2-diethylpyridin-1-ium bis((trifluoromethyl)sulfonyl)imide]: the viscosity is on record as 14.86 ± 0.091 mPa·s.
Consider `CCCc1cccc[n+]1CC.O=S(=O)([N-]S(=O)(=O)C(F)(F)F)C(F)(F)F`, for which the viscosity was 18.15 ± 0.11 mPa·s.
Same read-out and setting: the value for `CCCCc1cccc[n+]1CC.O=S(=O)([N-]S(=O)(=O)C(F)(F)F)C(F)(F)F` was 18.45 ± 0.11 mPa·s; that for `CCCCCCCc1cccc[n+]1CC.O=S(=O)([N-]S(=O)(=O)C(F)(F)F)C(F)(F)F` was 21.16 ± 0.13 mPa·s.
For `CCCCCCCCc1cccc[n+]1CC.O=S(=O)([N-]S(=O)(=O)C(F)(F)F)C(F)(F)F`, the viscosity came out at 23.71 ± 0.14 mPa·s.
`CCCCCc1cccc[n+]1CC.O=S(=O)([N-]S(=O)(=O)C(F)(F)F)C(F)(F)F`: the viscosity was 18.44 ± 0.11 mPa·s.
`CCCCCCc1cccc[n+]1CC.O=S(=O)([N-]S(=O)(=O)C(F)(F)F)C(F)(F)F`: the viscosity is reported as 19.59 ± 0.12 mPa·s.

Still in this series, the particulars now being: 343.15 K; 101.33 kPa; Liquid; Vibrating tube method.
Consider `CCc1cccc[n+]1CC.O=S(=O)([N-]S(=O)(=O)C(F)(F)F)C(F)(F)F` [1,2-diethylpyridin-1-ium bis((trifluoromethyl)sulfonyl)imide], for which the mass density is 1428.3 ± 1.1 kg/m3.
For the compound `CCCc1cccc[n+]1CC.O=S(=O)([N-]S(=O)(=O)C(F)(F)F)C(F)(F)F`, the mass density is recorded as 1405.4 ± 1.1 kg/m3.
On the same count and under the same terms, the value for `CCCCc1cccc[n+]1CC.O=S(=O)([N-]S(=O)(=O)C(F)(F)F)C(F)(F)F` was 1368.5 ± 1.1 kg/m3.
Turning to `CCCCCCCc1cccc[n+]1CC.O=S(=O)([N-]S(=O)(=O)C(F)(F)F)C(F)(F)F`, the mass density amounted to 1282.5 ± 1.1 kg/m3.
The same measure, in the same setting: the value for `CCCCCCCCc1cccc[n+]1CC.O=S(=O)([N-]S(=O)(=O)C(F)(F)F)C(F)(F)F` was 1259.9 ± 1.1 kg/m3.
The same measure, in the same setting: the value for `CCCCCc1cccc[n+]1CC.O=S(=O)([N-]S(=O)(=O)C(F)(F)F)C(F)(F)F` was 1331.5 ± 1.1 kg/m3.
Regarding `CCCCCCc1cccc[n+]1CC.O=S(=O)([N-]S(=O)(=O)C(F)(F)F)C(F)(F)F`, the mass density came to 1305.6 ± 1.1 kg/m3.

The series is the same for the next values; noted with them: 348.15 K; 101.33 kPa; Liquid; Concentric cylinders viscometry.
With `CCc1cccc[n+]1CC.O=S(=O)([N-]S(=O)(=O)C(F)(F)F)C(F)(F)F` [1,2-diethylpyridin-1-ium bis((trifluoromethyl)sulfonyl)imide], the viscosity amounted to 13.16 ± 0.08 mPa·s.
